Measurements reported in patent publication US6740642B2, “Macrolides with antibacterial activity” (BAsilea Parmaceutica AG, priority 2000, dated 2004).
Values after ≈ are worked out from the molar mass of the structure shown.

Columns and labels:
Test in all cases: MIC, standard microdilution
S. aureus 1086 = format: cell-based, Staphylococcus aureus; details: for MIC: Staphylococcus aureus, read-out: minimum inhibitory concentration (MIC)
From the text: (§1) The antibacterial activities of the compounds have been determined by standard microdilution technique (National Committee for Clinical Laboratory Standards. 1997. Methods for dilution antimicrobial susceptibility tests for bacteria that grow aerobically, 4th edition. Approved standard M7-A4. National Committee for Clinical Laboratory Standards, Wayne, Pa.).

S. aureus 745 = format: cell-based, Staphylococcus aureus; details: for MIC: Staphylococcus aureus, read-out: minimum inhibitory concentration (MIC)
From the text: as §1

S. aureus ATCC29213 = format: cell-based, Staphylococcus aureus; details: for MIC: Staphylococcus aureus, read-out: minimum inhibitory concentration (MIC)
From the text: as §1

E. coli ATCC25922 = format: cell-based; details: for MIC: Escherichia coli, read-out: minimum inhibitory concentration (MIC)
From the text: as §1

[1] = test system: P. aeruginosa ATCC27853 (+Ery. 32 μg/ml); format: cell-based
From the text: as §1

St. pneumoniae 1/1 = format: cell-based, Streptococcus pneumoniae; details: for MIC: Streptococcus pneumoniae, read-out: minimum inhibitory concentration (MIC)
From the text: as §1

St. pneumoniae 1/4 = format: cell-based, Streptococcus pneumoniae; details: for MIC: Streptococcus pneumoniae, read-out: minimum inhibitory concentration (MIC)
From the text: as §1

St. pneumoniae 12288 = format: cell-based, Streptococcus pneumoniae; details: for MIC: Streptococcus pneumoniae, read-out: minimum inhibitory concentration (MIC)
From the text: as §1

St. pneumoniae SL199T = format: cell-based, Streptococcus pneumoniae; details: for MIC: Streptococcus pneumoniae, read-out: minimum inhibitory concentration (MIC)
From the text: as §1

Row | SMILES | minimum inhibitory concentration (MIC) (S. aureus 1086) [µg/mL] | minimum inhibitory concentration (MIC) (S. aureus 745) [µg/mL] | minimum inhibitory concentration (MIC) (S. aureus ATCC29213) [µg/mL] | minimum inhibitory concentration (MIC) (E. coli ATCC25922) [µg/mL] | minimum inhibitory concentration (MIC) [1] [µg/mL] | minimum inhibitory concentration (MIC) (St. pneumoniae 1/1) | minimum inhibitory concentration (MIC) (St. pneumoniae 1/4) | minimum inhibitory concentration (MIC) (St. pneumoniae 12288) [µg/mL] | minimum inhibitory concentration (MIC) (St. pneumoniae SL199T) [µg/mL] | MIC (S. aureus 1086) [µg/mL] | MIC (S. aureus 745) [µg/mL] | MIC (S. aureus ATCC29213) [µg/mL] | MIC (E. coli ATCC25922) [µg/mL] | MIC (St. pneumoniae 1/1) [µg/mL] | MIC (St. pneumoniae 1/4) [µg/mL] | MIC (St. pneumoniae 12288) [µg/mL] | MIC (St. pneumoniae SL199T) [µg/mL]
1 | CC[C@H]1OC(=O)[C@H](C)C(=O)[C@H](C)[C@@H](O[C@@H]2O[C@H](C)C[C@H](N(C)C)[C@H]2O)[C@](C)(OC)C[C@@H](C)C(=O)[C@H](C)[C@H]2[C@H](Sc3ccc(OC)c(OC)c3)C(=O)O[C@@]21C [Compound I-12] | 0.5 (≈ 0.641 µM) | >16 | 0.5 (≈ 0.641 µM) | >16 | >16 | <=0.5 μg/ml | 1 µg/mL (≈ 1.28 µM) | 16 (≈ 20.5 µM) | 8 (≈ 10.3 µM) | – | – | – | – | – | – | – | –
2 | CC[C@H]1OC(=O)[C@H](C)C(=O)[C@H](C)[C@@H](O[C@@H]2O[C@H](C)C[C@H](N(C)C)[C@H]2O)[C@](C)(OC)C[C@@H](C)C(=O)[C@H](C)[C@H]2[C@H](SCCn3cnc4c(N(C)C)ncnc43)C(=O)O[C@@]21C [Compound I-27, (3S,3aR,4R,6R,8R,9R,10R,12R,15R,15aS)-3-[[2-[6-N,N-Dimethylamino-9H-purine-9-yl]ethyl]thio]-15-ethyloctahydro-8-methoxy-4,6,8,10,12,15a-hexamethyl-9-[[3,4,6-trideoxy-3-(dimethylamino)-β-D-xylo-hexopyranosyl]oxy]-2H-furo[2,3-c]oxacyclotetradecin-2,5,11,13(3H,6H,12H)-tetrone] | 1 (≈ 1.2 µM) | >16 | 0.25 (≈ 0.3 µM) | >16 | >16 | <=0.25 μg/ml | <=0.25 μg/ml | 2 (≈ 2.4 µM) | 1 (≈ 1.2 µM) | – | – | – | – | – | – | – | –
3 | CC[C@H]1OC(=O)[C@H](C)C(=O)[C@H](C)[C@@H](O[C@@H]2O[C@H](C)C[C@H](N(C)C)[C@H]2O)[C@](C)(OC)C[C@@H](C)C(=O)[C@H](C)[C@H]2[C@H](SCCOc3ccccc3)C(=O)O[C@@]21C [Compound I-11, (3S,3aR,4R,6R,8R,9R,10R,12R,15R,15aS)-15-Ethyloctahydro-8-methoxy-4,6,8,10,12,15a-hexamethyl-3-[[2-phenoxyethyl]thio]-9-[[3,4,6-trideoxy-3-(dimethylamino)-β-D-xylo-hexopyranosyl]oxy]-2H-furo[2,3-c]oxacyclotetradecin-2,5,11,13(3H,6H,12H)-tetrone] | – | – | – | – | >16 | – | – | – | – | ≤ 0.25 | > 16 | ≤ 0.25 | > 16 | ≤ 0.5 | 4 (≈ 5.24 µM) | 8 (≈ 10.5 µM) | 4 (≈ 5.24 µM)
4 | CC[C@H]1OC(=O)[C@H](C)C(=O)[C@H](C)[C@@H](O[C@@H]2O[C@H](C)C[C@H](N(C)C)[C@H]2O)[C@](C)(OC)C[C@@H](C)C(=O)[C@H](C)[C@H]2[C@H](SCc3ccccc3)C(=O)O[C@@]21C [Compound I-4, (3S,3aR,4R,6R,8R,9R,10R,12R,15R,15aS)-15-Ethyloctahydro-8-methoxy-4,6,8,10,12,15a-hexamethyl-3-[(phenylmethyl)thio]-9-[[3,4,6-trideoxy-3-(dimethylamino)-β-D-xylo-hexopyranosyl]oxy]-2H-furo[2,3-c]oxacyclotetradecin-2,5,11,13(3H,6H,12H)-tetrone] | – | – | – | – | >16 | – | – | – | – | 1 (≈ 1.36 µM) | > 16 | 1 (≈ 1.36 µM) | > 16 | ≤ 0.5 | 8 (≈ 10.9 µM) | 16 (≈ 21.8 µM) | 16 (≈ 21.8 µM)
5 | CC[C@H]1OC(=O)[C@H](C)C(=O)[C@H](C)[C@@H](O[C@@H]2O[C@H](C)C[C@H](N(C)C)[C@H]2O)[C@](C)(OC)C[C@@H](C)C(=O)[C@H](C)[C@H]2[C@H](S(=O)(=O)CCCc3ccccc3)C(=O)O[C@@]21C [Compound I-24, (3S,3aR,4R,6R,8R,9R,10R,12R,15R,15aS)-15-Ethyloctahydro-8-methoxy-4,6,8,10,12,15a-hexamethyl-3-[(3-phenylpropyl)sulfonyl]-9-[[3,4,6-trideoxy-3-(dimethylamino)-β-D-xylo-hexopyranosyl]oxy]-2H-furo[2,3-c]oxacyclotetradecin-2,5,11,13(3H,6H,12H)-tetrone] | – | – | – | – | >16 | – | – | – | – | 1 (≈ 1.26 µM) | > 16 | 1 (≈ 1.26 µM) | > 16 | ≤ 0.5 | 1 (≈ 1.26 µM) | 16 (≈ 20.2 µM) | 16 (≈ 20.2 µM)
6 | CC[C@H]1OC(=O)[C@H](C)C(=O)[C@H](C)[C@@H](O[C@@H]2O[C@H](C)C[C@H](N(C)C)[C@H]2O)[C@](C)(OC)C[C@@H](C)C(=O)[C@H](C)[C@H]2[C@H](SCCn3ccnc3)C(=O)O[C@@]21C [Compound I-22] | 0.25 (≈ 0.339 µM) | >16 | 0.25 (≈ 0.339 µM) | >16 | >16 | <=0.12 μg/ml | 1 µg/mL (≈ 1.36 µM) | >16 | 8 (≈ 10.8 µM) | – | – | – | – | – | – | – | –
7 | CC[C@H]1OC(=O)[C@H](C)C(=O)[C@H](C)[C@@H](O[C@@H]2O[C@H](C)C[C@H](N(C)C)[C@H]2O)[C@](C)(OC)C[C@@H](C)C(=O)[C@H](C)[C@H]2[C@H](SC)C(=O)O[C@@]21C [Compound I-5, (3S,3aR,4R,6R,8R,9R,10R,12R,15R,15aS)-15-Ethyloctahydro-8-methoxy-4,6,8,10,12,15a-hexamethyl-3-[methylthio]-9-[[3,4,6-trideoxy-3-(dimethylamino)-β-D-xylo-hexopyranosyl]oxy]-2H-furo[2,3-c]oxacydotetradecin-2,5,11,13(3H,6H,12H)-tetrone] | 0.5 (≈ 0.76 µM) | >16 | 0.5 (≈ 0.76 µM) | >16 | >16 | <=0.5 μg/ml | 32 µg/mL (≈ 48.6 µM) | >32 | 16 (≈ 24.3 µM) | – | – | – | – | – | – | – | –
8 | CC[C@H]1OC(=O)[C@H](C)C(=O)[C@H](C)[C@@H](O[C@@H]2O[C@H](C)C[C@H](N(C)C)[C@H]2O)[C@](C)(OC)C[C@@H](C)C(=O)[C@H](C)[C@H]2[C@H](SCCc3ccccn3)C(=O)O[C@@]21C [Compound I-13, (3S,3aR,4R,6R,8R,9R,10R,12R,15R,15aS)-15-Ethyloctahydro-8-methoxy-4,6,8,10,12,15a-hexamethyl-3-[[2-(2-pyridinyl)ethyl]thio]-9-[[3,4,6-trideoxy-3-(dimethylamino)-β-D-xylo-hexopyranosyl]oxy]-2H-furo[2,3-c]oxacyclotetradecin-2,5,11,13(3H,6H,12H)-tetrone] | – | – | – | – | >16 | – | – | – | – | ≤ 0.25 | > 16 | ≤ 0.25 | 16 (≈ 21.4 µM) | ≤ 0.5 | 1 (≈ 1.34 µM) | 8 (≈ 10.7 µM) | 2 (≈ 2.67 µM)
9 | CC[C@H]1OC(=O)[C@H](C)C(=O)[C@H](C)[C@@H](O[C@@H]2O[C@H](C)C[C@H](N(C)C)[C@H]2O)[C@](C)(OC)C[C@@H](C)C(=O)[C@H](C)[C@H]2[C@H](SCCn3ccc(-c4cccnc4)n3)C(=O)O[C@@]21C [Compound I-16, (3S,3aR,4R,6R,8R,9R,10R,12R,15R,15aS)-15-Ethyloctahydro-8-methoxy-4,6,8,10,12,15a-hexamethyl-3-[[2-[3-(3-pyridinyl)-1H-pyrazol-1-yl]-ethyl]thio]-9-[[3,4,6-trideoxy-3-(dimethylamino)-β-D-xylo-hexopyranosyl]oxy]-2H-furo[2,3-c]oxacyclotetradecin-2,5,11,13(3H,6H,12H)-tetrone] | – | – | – | – | >16 | – | – | – | – | ≤ 0.12 | > 16 | ≤ 0.12 | > 16 | ≤ 0.12 | ≤ 0.12 | 0.5 (≈ 0.613 µM) | 0.5 (≈ 0.613 µM)
10 | CC[C@H]1OC(=O)[C@H](C)C(=O)[C@H](C)[C@@H](O[C@@H]2O[C@H](C)C[C@H](N(C)C)[C@H]2O)[C@](C)(OC)C[C@@H](C)C(=O)[C@H](C)[C@H]2[C@H](SCCn3cnc(-c4cccnc4)n3)C(=O)O[C@@]21C [Compound I-17, (3S,3aR,4R,6R,8R,9R,10R,12R,15R,15aS)-15-Ethyloctahydro-8-methoxy-4,6,8,10,12,15a-hexamethyl-3-[[2-[3-(3-pyridinyl)-1H-1,2,4-triazol-1-yl]ethyl]thio]-9-[[3,4,6-trideoxy-3-(dimethylamino)-β-D-xylo-hexopyranosyl]oxy]-2H-furo[2,3-c]oxacyclotetradecin-2,5,11,13(3H,6H,12H)-tetrone] | – | – | – | – | >16 | – | – | – | – | ≤ 0.12 | > 16 | ≤ 0.12 | > 16 | ≤ 0.12 | ≤ 0.12 | – | 1 (≈ 1.23 µM)
